Measurements taken from ChEMBL document CHEMBL1909046, “DrugMatrix in vitro pharmacology data”.

Experiments:
Caspase-1 = target: T1, Caspase-1 (Homo sapiens, UniProt P29466); design: species or system Escherichia coli;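 also: Caspase-1 enzyme inhibition assay with a peptide substrate; in other assays of this panel Not Active means under 50% inhibition at 10 µM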
T1 sequence (P29466 whole entry): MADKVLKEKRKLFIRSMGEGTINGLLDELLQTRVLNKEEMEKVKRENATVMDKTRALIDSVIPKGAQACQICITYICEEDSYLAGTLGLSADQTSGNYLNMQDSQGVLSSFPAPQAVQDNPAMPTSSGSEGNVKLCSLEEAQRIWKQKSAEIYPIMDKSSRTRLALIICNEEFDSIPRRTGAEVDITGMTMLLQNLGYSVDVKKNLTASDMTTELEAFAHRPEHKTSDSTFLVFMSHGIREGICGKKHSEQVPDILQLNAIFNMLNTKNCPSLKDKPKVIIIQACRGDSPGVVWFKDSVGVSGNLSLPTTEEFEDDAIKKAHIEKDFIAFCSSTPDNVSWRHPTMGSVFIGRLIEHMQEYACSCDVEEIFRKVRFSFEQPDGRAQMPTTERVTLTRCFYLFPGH

[1] = target: T2, Muscarinic acetylcholine receptor M2 (Homo sapiens, UniProt P08172); type: cell membranes, CHO-K1, Membrane; conditions: cho-k1; also: in other assays of this panel Not Active means under 50% inhibition at 10 µM
T2 sequence (P08172 whole entry): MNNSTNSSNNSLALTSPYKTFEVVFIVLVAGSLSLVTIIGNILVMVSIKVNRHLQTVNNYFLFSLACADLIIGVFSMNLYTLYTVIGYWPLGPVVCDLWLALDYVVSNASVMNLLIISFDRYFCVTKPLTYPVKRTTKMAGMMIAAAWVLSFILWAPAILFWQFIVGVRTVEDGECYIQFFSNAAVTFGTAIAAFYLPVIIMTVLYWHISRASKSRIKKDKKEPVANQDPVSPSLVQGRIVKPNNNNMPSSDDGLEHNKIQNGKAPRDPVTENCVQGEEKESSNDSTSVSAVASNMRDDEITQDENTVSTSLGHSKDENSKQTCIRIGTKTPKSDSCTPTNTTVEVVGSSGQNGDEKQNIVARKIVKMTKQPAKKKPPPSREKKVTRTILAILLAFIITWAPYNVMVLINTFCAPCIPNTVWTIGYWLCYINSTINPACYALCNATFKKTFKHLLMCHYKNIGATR

[2] = target: Protein kinase C alpha type (Homo sapiens, UniProt P17252); type: cell-based; conditions: sf9;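 also: inhibition of PKCalpha kinase activity measured in an enzyme assay with histone as the phosphorylation substrate; in other assays of this panel Not Active means under 50% inhibition at 10 µM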
[3] = target: T3, Amine oxidase [flavin-containing] A (Homo sapiens, UniProt P21397); test: DRUGMATRIX: Monoamine Oxidase MAO-A enzyme inhibition (substrate: Kynuramine); design: species or system BTI-TN-5B1-4; conditions: bti-tn-5b1-4; Not Active = under 50% inhibition at 10 µM
T3 sequence (P21397 whole entry): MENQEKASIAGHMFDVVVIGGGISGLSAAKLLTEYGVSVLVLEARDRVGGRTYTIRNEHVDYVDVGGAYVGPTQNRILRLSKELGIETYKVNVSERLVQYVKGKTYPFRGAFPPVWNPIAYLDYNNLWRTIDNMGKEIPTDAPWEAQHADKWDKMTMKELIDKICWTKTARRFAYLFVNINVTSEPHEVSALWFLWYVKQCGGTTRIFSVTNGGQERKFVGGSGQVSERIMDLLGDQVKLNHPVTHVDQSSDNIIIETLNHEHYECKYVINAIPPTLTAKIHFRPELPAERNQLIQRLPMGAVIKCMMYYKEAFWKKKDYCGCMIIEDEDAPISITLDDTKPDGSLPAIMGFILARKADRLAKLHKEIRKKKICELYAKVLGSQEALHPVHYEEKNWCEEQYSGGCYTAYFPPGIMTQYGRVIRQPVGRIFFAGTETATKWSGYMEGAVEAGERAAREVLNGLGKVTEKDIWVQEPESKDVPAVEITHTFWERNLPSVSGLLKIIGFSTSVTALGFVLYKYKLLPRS

[4] = target: 5-hydroxytryptamine receptor 4 (Cavia porcellus, UniProt O70528); type: cell membranes, Dunkin-Hartley, Striatum, Membrane; also: in other assays of this panel Not Active means under 50% inhibition at 10 µM
5-hydroxytryptamine receptor 4, sequence (O70528 whole entry): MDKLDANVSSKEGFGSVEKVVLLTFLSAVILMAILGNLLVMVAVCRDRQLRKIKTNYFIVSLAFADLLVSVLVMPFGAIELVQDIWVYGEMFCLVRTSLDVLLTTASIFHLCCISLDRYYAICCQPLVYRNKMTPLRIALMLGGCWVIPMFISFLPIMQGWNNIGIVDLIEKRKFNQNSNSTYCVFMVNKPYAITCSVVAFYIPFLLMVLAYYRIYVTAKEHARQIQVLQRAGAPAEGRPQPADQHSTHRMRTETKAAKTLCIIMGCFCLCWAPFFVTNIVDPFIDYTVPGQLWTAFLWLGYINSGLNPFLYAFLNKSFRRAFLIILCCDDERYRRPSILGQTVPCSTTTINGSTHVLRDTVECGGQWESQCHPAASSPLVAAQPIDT

Cytochrome P450 1A2 = target: T4, Cytochrome P450 1A2 (Homo sapiens, UniProt P05177); conditions: bti-tn-5b1-4; also: in other assays of this panel Not Active means under 50% inhibition at 10 µM
T4 sequence (P05177 whole entry): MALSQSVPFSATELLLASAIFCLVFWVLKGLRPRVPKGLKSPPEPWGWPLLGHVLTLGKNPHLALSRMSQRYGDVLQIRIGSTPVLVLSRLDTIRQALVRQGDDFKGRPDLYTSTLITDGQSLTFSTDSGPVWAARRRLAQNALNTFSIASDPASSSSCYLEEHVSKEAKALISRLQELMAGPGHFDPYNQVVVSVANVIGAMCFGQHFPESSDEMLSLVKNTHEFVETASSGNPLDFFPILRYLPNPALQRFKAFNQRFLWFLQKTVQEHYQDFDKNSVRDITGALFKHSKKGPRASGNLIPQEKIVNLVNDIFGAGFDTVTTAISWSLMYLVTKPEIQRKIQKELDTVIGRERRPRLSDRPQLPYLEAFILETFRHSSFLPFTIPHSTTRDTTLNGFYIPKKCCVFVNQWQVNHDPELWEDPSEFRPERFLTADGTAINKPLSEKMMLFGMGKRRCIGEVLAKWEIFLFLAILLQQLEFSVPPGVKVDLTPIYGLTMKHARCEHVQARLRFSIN

CCCNCC(O)COc1ccccc1C(=O)CCc1ccccc1 (stereo unspecified) [PROPAFENONE]
Not Active: IC50 (Caspase-1) | IC50 [1] | IC50 [2] | IC50 [3] | IC50 [4]

COc1cc([C@@H]2c3cc4c(cc3[C@@H](O[C@@H]3O[C@@H]5CO[C@@H](C)O[C@H]5[C@H](O)[C@H]3O)[C@H]3COC(=O)[C@H]23)OCO4)cc(OC)c1O [ETOPOSIDE]
Not Active: IC50 (Caspase-1) | IC50 [1] | IC50 [2] | IC50 [3] | IC50 [4]

O=c1cc(N2CCOCC2)oc2c(-c3ccccc3)cccc12 [LY-294002]
Not Active: IC50 (Caspase-1) | IC50 [1] | IC50 [2] | IC50 [3] | IC50 [4]

COc1cc(N)c(Cl)cc1C(=O)NC1CCN(CCCOc2ccc(F)cc2)CC1OC (stereo unspecified) [CISAPRIDE]
Not Active: IC50 (Cytochrome P450 1A2) | Ki (Cytochrome P450 1A2) | IC50 (Caspase-1) | IC50 [1] | IC50 [2] | IC50 [3]

CC(=O)[C@@]1(O)CC[C@H]2[C@@H]3CCC4=CC(=O)CC[C@]4(C)[C@H]3CC[C@@]21C [HYDROXYPROGESTERONE]
Not Active: IC50 (Caspase-1) | IC50 [1] | IC50 [2] | IC50 [3] | IC50 [4]

CC(C)NCC(O)COc1cccc2[nH]ccc12 (stereo unspecified) [PINDOLOL]
Not Active: IC50 (Caspase-1) | IC50 [1] | IC50 [2] | IC50 [3] | IC50 [4]

NCCCC(O)(P(=O)(O)O)P(=O)(O)O [ALENDRONIC ACID]
Not Active: IC50 (Caspase-1) | IC50 [1] | IC50 [2] | IC50 [3] | IC50 [4]

COc1ccc2c3c1O[C@H]1C[C@@H](O)C=C[C@@]31CCN(C)C2 [GALANTAMINE]
Not Active: IC50 (Caspase-1) | IC50 [1] | IC50 [2] | IC50 [3] | IC50 [4]

Oc1c(Cl)cc(Cl)c(Cl)c1Cc1c(O)c(Cl)cc(Cl)c1Cl [HEXACHLOROPHENE]
Not Active: IC50 (Caspase-1) | IC50 [1] | IC50 [2] | IC50 [3] | IC50 [4]

C#C[C@]1(OC(C)=O)CC[C@H]2[C@@H]3CCC4=C[C@@H](OC(C)=O)CC[C@@H]4[C@H]3CC[C@@]21C [ETHYNODIOL DIACETATE]
Not Active: IC50 (Cytochrome P450 1A2) | Ki (Cytochrome P450 1A2) | IC50 (Caspase-1) | IC50 [1] | IC50 [2] | IC50 [4]

CC(C)=CCC/C(C)=C/CO [GERANIOL]
Not Active: IC50 (Caspase-1) | IC50 [1] | IC50 [2] | IC50 [3] | IC50 [4]

CN1[C@@H]2CC[C@H]1C[C@@H](OC(=O)C(CO)c1ccccc1)C2 (stereo partly specified) [ATROPINE]
Not Active: IC50 (Caspase-1) | IC50 [2] | IC50 [3] | IC50 [4]

CCn1cc(C(=O)O)c(=O)c2cnc(N3CCCC3)nc21 [PIROMIDIC ACID]
Not Active: IC50 (Caspase-1) | IC50 [1] | IC50 [2] | IC50 [3] | IC50 [4]

CC(C)c1cccc(C(C)C)c1O [PROPOFOL]
Not Active: IC50 (Caspase-1) | IC50 [1] | IC50 [2] | IC50 [3] | IC50 [4]
